Values after ≈ are worked out from the molar mass of the structure shown. Values joined by “and” are separate entries in the source; they are usually repeats but may differ in a detail not shown here. Identical values can stand only once. Like-named read-outs stand apart in the source and are kept apart here. Where a SMILES comes first, the peptide text is derived from it. [ ]: non-standard residue; d: D form. PhLac = O=C(O)[C@@H](O)Cc1ccccc1; NMeA = CN[C@@H](C)C(=O)O
Legend:
Caenorhabditis elegans = experiment: Nematicidal activity assay; format: in vivo; conditions: 18 h
Experimental: The nematicidal activity assay was conducted following a previously described procedure with slight modifications. C. elegans was cultured on nematode growth medium (NGM) containing 3 g NaCl, 20 g agar, 2.5 g peptone, 1 mL 1 M CaCl2, 25 mL of 1 M (pH 6.0) KPO4, 1 mL 1 M MgSO4, and 1 mL cholesterol (5 mg/mL in ethanol) per liter of medium. Plates were coated with Escherichia coli strain OP50, which served as the food source for nematodes. Synchronization of the nematode population was performed using a high egg density plate (~120 h). The plate was rinsed three times with 4 mL of 0.9% NaCl solution and then transferred to a 15 mL falcon tube. The nematode suspension was centrifuged at 1000 rpm for 3 min, and the supernatant was discarded. This procedure was repeated until a clear nematode suspension was obtained. After the last washing step, 2 mL of the suspension was mixed with 5 mL of bleaching solution (1 mL sodium hypochlorite solution, 0.5 mL 5 M NaOH, and 3.5 mL Milli-Q water). The solution was gently shaken for approximately 5 min to break down the nematode tissue, and monitored under the microscope. The reaction was stopped by adding 7 mL 0.9% NaCl solution when traces of adults were still visible. Subsequently, the suspension was centrifuged at 2500 rpm for 2 min and washed 3 times as previously described. After the final washing step, the supernatant was removed, and the volume was adjusted to 7 mL with 0.9% NaCl solution. The nematode egg suspension was incubated at 23 °C on a rotary shaker at 80 rpm for 18 h. The hatched nematodes were transferred to a fresh NGM plate supplemented with E.coli OP50. After 50–70 h, the J4 and adult C. elegans were washed from the plate as mentioned above. The nematode concentration was determined and diluted to approximately 1000 nematodes/mL.
Pure compounds were tested at concentrations of 10, 50, and 100 μg/mL in 48-well microtiter plates. The compounds, dissolved in MeOH, were added to the well plate and subsequently dried under nitrogen. After complete evaporation of the solvent, 300 μL of the nematode suspension (1000 nematodes/mL) was added to the compounds. Each treatment was replicated three times. MeOH was used as the negative control while 1 μg/mL Ivermectin served as the positive control. Nematodes were monitored 15 min after inoculation, and the plates were incubated at 24 °C and 150 rpm for 18 h. After incubation, both alive and dead nematodes were counted in three replicates under a stereomicroscope, and the mortality rate was calculated. Erect and non-moving nematodes were considered dead. […] The observed percentage of dead nematodes was corrected by considering the natural mortality observed in the negative control, using the Schneider-Orelli formula [30].

[1] = test system: L929 (murine) mouse fibroblasts; experiment: Cytotoxicity (MTT) assay; format: cell-based
Experimental: (§1) In vitro cytotoxic activity of the isolated compounds was tested by applying the MTT (3-(4,5-dimethylthiayol-2-yl)-2,5-diphenyltetrazolium bromide) assay as previously reported. The mammalian cell lines used in the tests were sourced from DSMZ and included mouse fibroblasts (L929) and endocervical adenocarcinoma (KB3.1), human lung carcinoma (A549), breast adenocarcinoma (MCF-7), human ovarian cancer (SKOV-3), prostate carcinoma (PC-3), and epidermoid carcinoma cells (A431).

[2] = test system: KB3.1 (cervix) endocervical adenocarcinoma; format: cell-based, human
Experimental: as §1

[3] = test system: Acinetobacter baumanii (DSM 30008); experiment: Antimicrobial assay (MIC); format: cell-based; set-up: key: -: no inhibition observed
Experimental: (§2) The antimicrobial activity of the isolated secondary metabolites was determined using our established protocol, against clinically relevant microorganisms obtained from the German Collection of Microorganisms and Cell Cultures (DSMZ, Braunschweig, Germany). These included Staphylococcus aureus (DSM 346), Bacillus subtilis (DSM 10), Acinetobacter baumanii (DSM 30008), Escherichia coli (DSM 1116), Chromobacterium violaceum (DSM 30191), Pseudomonas aeruginosa (PA14), Mycolicibacterium smegmatis (ATCC 700084), Candida albicans (DSM 1665), Mucor hiemalis (DSM 2656), Rhodotorula glutinis (DSM 10134), Schizosaccharomyces pombe (DSM 70572) and Pichia anomala (DSM 6766). Nystatin was used as an antifungal positive control whereas oxytetracycline, ciprofloxacin, gentamicin, and kanamycin were used as positive controls against Gram-positive and Gram-negative bacteria.

[4] = test system: Bacillus subtilis (DSM 10); experiment: Antimicrobial assay (MIC); format: cell-based; set-up: key to MIC (µg/mL): -: no inhibition observed
Experimental: as §2

[5] = test system: Candida albicans (DSM 1665); experiment: Antimicrobial assay (MIC); format: cell-based; set-up: key to MIC (µg/mL): -: no inhibition observed
Experimental: as §2

[6] = test system: Chromobacterium violaceum (DSM 30191); experiment: Antimicrobial assay (MIC); format: cell-based; set-up: key to MIC (µg/mL): -: no inhibition observed
Experimental: as §2

[7] = test system: Escherichia coli (DSM 1116); experiment: Antimicrobial assay (MIC); format: cell-based; set-up: key to MIC (µg/mL): -: no inhibition observed
Experimental: as §2

[8] = test system: Mucor hiemalis (DSM 2656); experiment: Antimicrobial assay (MIC); format: cell-based; set-up: key to MIC (µg/mL): -: no inhibition observed
Experimental: as §2

[9] = test system: Mycobacterium smegmatis (ATCC 700084); experiment: Antimicrobial assay (MIC); format: cell-based; set-up: key to MIC (µg/mL): -: no inhibition observed
Experimental: as §2

[10] = test system: Pichia anomala (DSM 6766); experiment: Antimicrobial assay (MIC); format: cell-based; set-up: key to MIC (µg/mL): -: no inhibition observed
Experimental: as §2

[11] = test system: Pseudomonas aeruginosa (PA14); experiment: Antimicrobial assay (MIC); format: cell-based; set-up: key to MIC (µg/mL): -: no inhibition observed
Experimental: as §2

[12] = test system: Rhodotorula glutinis (DSM 10134); experiment: Antimicrobial assay (MIC); format: cell-based; set-up: key to MIC (µg/mL): -: no inhibition observed
Experimental: as §2

[13] = test system: Schizosaccharomyces pombe (DSM 70572); experiment: Antimicrobial assay (MIC); format: cell-based; set-up: key to MIC (µg/mL): -: no inhibition observed
Experimental: as §2

[14] = test system: Staphylococcus aureus (DSM 346); experiment: Antimicrobial assay (MIC); format: cell-based; set-up: key to MIC (µg/mL): -: no inhibition observed
Experimental: as §2

[15] = test system: A431 (skin) epidermoid carcinoma cells; experiment: Cytotoxicity (MTT) assay; format: cell-based; conditions: Homo sapiens, A-431, read-out: IC50, Positive Control Epothilone B (nM)
Experimental: as §1, with “(A431). Epothilone B was used as the positive control.” for “(A431).”

[16] = test system: A549 (lung) human lung carcinoma; experiment: Cytotoxicity (MTT) assay; format: cell-based; conditions: A549, read-out: IC50, Positive Control Epothilone B (nM)
Experimental: as §1, with “(A431). Epothilone B was used as the positive control.” for “(A431).”

[17] = test system: MCF-7 (breast) adenocarcinoma; experiment: Cytotoxicity (MTT) assay; format: cell-based; conditions: Homo sapiens, MCF7, read-out: IC50, Positive Control Epothilone B (nM)
Experimental: as §1, with “(A431). Epothilone B was used as the positive control.” for “(A431).”

[18] = test system: PC-3 (prostate) carcinoma; experiment: Cytotoxicity (MTT) assay; format: cell-based; conditions: Homo sapiens, read-out: IC50, Positive Control Epothilone B (nM)
Experimental: as §1, with “(A431). Epothilone B was used as the positive control.” for “(A431).”

[19] = MTT assay, KB3.1 (cervix), read-out: IC50
[20] = 10 µg/mL, J4 and adult C. elegans, 24 °C, corrected by Schneider-Orelli formula vs methanol control, mean ± SD (n ≥ 3), < 0: less active than negative control
[21] = 50 µg/mL, J4 and adult C. elegans, 24 °C, corrected by Schneider-Orelli formula vs methanol control, mean ± SD (n ≥ 3)
[22] = 100 µg/mL, J4 and adult C. elegans, 24 °C, corrected by Schneider-Orelli formula vs methanol control, mean ± SD (n ≥ 3)

Row | Compound | IC50 [1] | IC50 [2, 19] | MIC (µg/mL) [3] | MIC (µg/mL) [4] | MIC (µg/mL) [5] | MIC (µg/mL) [6] | MIC (µg/mL) [7] | MIC (µg/mL) [8] | MIC (µg/mL) [9] | MIC (µg/mL) [10] | MIC (µg/mL) [11] | MIC (µg/mL) [12] | MIC (µg/mL) [13] | MIC (µg/mL) [14] | Corrected mortality rate (%) (Caenorhabditis elegans; [20]) | Corrected mortality rate (%) (Caenorhabditis elegans; [21]) | Corrected mortality rate (%) (Caenorhabditis elegans; [22]) | also measured
1 | Ivermectin [reference compound] |  |  |  |  |  |  |  |  |  |  |  |  |  |  |  |  |  | Corrected mortality rate (%) (Caenorhabditis elegans; 1 µg/mL, positive control, C. elegans, corrected mortality, mean ± SD): 87.4 ± 6.5%
2 | 3S,4S-HMDA-L-Trp^1-L-Trp^2-L-Phe (lariat or depsi) [Compound 3, Beauveriolide U, previously undescribed cyclic tetradepsipeptide, HMDA-Trp-Trp-Phe, C42H49N5O5] | > 35 µM | > 35 µM | - | - | - | - | - | - | - | - | - | - | - | - | < 0% | 6.0 ± 1.5% | 32.1 ± 7.0% | 
3 | NC[C@H]1O[C@H](O[C@H]2[C@H](O)[C@@H](O[C@H]3O[C@H](CO)[C@@H](O)[C@H](N)[C@H]3O)[C@H](N)C[C@@H]2N)[C@H](O)[C@@H](O)[C@@H]1O [Kanamycin, reference compound] |  |  |  |  |  |  |  |  |  |  |  |  |  |  |  |  |  | MIC [9]: 0.1 µg/mL (≈ 0.206 µM)
4 | CC(C)C[C@@H]1NC(=O)[C@H](Cc2ccccc2)OC(=O)[C@H](C)N(C)C(=O)[C@H](CC(C)C)NC(=O)[C@H](Cc2ccccc2)NC(=O)[C@H](C)N(C)C1=O [Compound 4, Cardinalisamide D] (cyclo([PhLac]L[NMeA]FL[NMeA])) | > 35 µM |  | - | - | - | - | - | - | - | - | - | - | - | - | 13.7 ± 5.2% | 14.2 ± 4.9% | 23.4 ± 7.4% | IC50 [2]: 36.2 µM
5 | CNC(C)C1CCC(N)C(OC2C(N)CC(N)C(OC3OCC(C)(O)C(NC)C3O)C2O)O1 (stereo not drawn) [Gentamycin, reference compound] |  |  |  |  |  |  |  |  |  |  |  |  |  |  |  |  |  | MIC ([6]; DSM30191): 1.7 µg/mL (≈ 3.56 µM); MIC ([7]; DSM1116): 0.83 µg/mL (≈ 1.74 µM); MIC [11]: 0.42 µg/mL (≈ 0.879 µM); MIC ([14]; DSM346): 0.42 µg/mL (≈ 0.879 µM)
6 | C/C(=C\c1csc(C)n1)[C@@H]1C[C@@H]2O[C@]2(C)CCC[C@H](C)[C@H](O)[C@@H](C)C(=O)C(C)(C)[C@@H](O)CC(=O)O1 [Epothilone B] |  |  |  |  |  |  |  |  |  |  |  |  |  |  |  |  |  | IC50 [15]: 0.06 nM; IC50 [16]: 0.05 nM; IC50 [17]: 0.07 nM; IC50 [18]: 0.09 nM
7 | ES-242-9 [Compound 1] | > 35 µM | 29.2 µM | - | - | - | - | - | - | - | - | - | - | - | - | 33.4 ± 5.3% | 31.7 ± 7.1% | 51.1 ± 5.3% and 51.1% | 
8 | C[C@@H]1[C@H](O)[C@@H](C)/C=C/C=C/CC/C=C/C=C/C=C/C=C/C(O[C@H]2O[C@H](C)[C@@H](O)[C@H](N)[C@@H]2O)CC2O[C@](O)(CC(O)C(O)CCC(O)CC(O)CC(O)CC(=O)O[C@H]1C)CC(O)C2C(=O)O (stereo partly drawn) [Nystatin, reference compound] |  |  |  |  |  |  |  |  |  |  |  |  |  |  |  |  |  | MIC [5]: 2.1 µg/mL (≈ 2.27 µM); MIC [8]: 4.2 µg/mL (≈ 4.54 µM); MIC [10]: 4.2 µg/mL (≈ 4.54 µM); MIC [12]: 1.0 µg/mL (≈ 1.08 µM); MIC [13]: 2.1 µg/mL (≈ 2.27 µM)
9 | HMDA-Trp-Ala-Phe (lariat or depsi) [Compound 2, Beauveriolide T] | > 35 µM | > 35 µM | - | - | - | - | - | - | - | - | - | - | - | - | 11.6 ± 6.4% | 33.1 ± 6.7% | 36.1 ± 7.3% | 
10 | CN(C)[C@@H]1C(O)=C(C(N)=O)C(=O)[C@@]2(O)C(O)=C3C(=O)c4c(O)cccc4[C@@](C)(O)[C@H]3[C@H](O)[C@@H]12 [Oxytetracyclin, reference compound] |  |  |  |  |  |  |  |  |  |  |  |  |  |  |  |  |  | MIC ([4]; DSM10): 16.6 µg/mL (≈ 36.1 µM)
